Test results taken from ChEMBL document CHEMBL5050839, “Methods and compositions for treatment of cancer” (2021).
pIC50: −log10 of the molar value. Blank lines part the entries; values can stand above or below the molecule they belong to. Activity calls are given as the source filed them. The rule behind the calls is not given here.

Key:
Format in all cases: functional, cell-based
Conditions in all cases: for Activity: time 24-48 hrs
MIA PaCa-2 = assay: Antiproliferative activity against human MIA PaCa-2 cells after 24 to 48 hrs by Cell Titer-Glo luminiscent cell viability assay
PANC-1 = assay: Antiproliferative activity against human PANC-1 cells after 24 to 48 hrs by Cell Titer-Glo luminiscent cell viability assay
ASPC1 = assay: Antiproliferative activity against human ASPC1 cells after 24 to 48 hrs by Cell Titer-Glo luminiscent cell viability assay
BXPC-3 = assay: Antiproliferative activity against human BXPC-3 cells after 24 to 48 hrs by Cell Titer-Glo luminiscent cell viability assay

Structure (SMILES): O=C(O)c1ccc(NC(=O)[C@H](Cc2ccc(O)cc2)NC(=O)c2ccccc2)cc1
Activity (MIA PaCa-2): Active
Activity (PANC-1): Active
Activity (ASPC1): Active
Activity (BXPC-3): Active

Structure (SMILES): COc1ccc(-c2ccc3cc(C(=O)O)ccc3c2)cc1C12CC3CC(CC(C3)C1)C2
Activity (MIA PaCa-2): Active
Activity (PANC-1): Active
Activity (ASPC1): Active
Activity (BXPC-3): Active

Structure (SMILES): C[C@]12CC[C@@H]3c4ccc(OS(=O)(=O)O)cc4CC[C@H]3[C@@H]1CCC2=O
Activity (MIA PaCa-2): Active
Activity (PANC-1): Active
Activity (ASPC1): Active
Activity (BXPC-3): Active

Structure (SMILES): CN1CCC(=C2c3ccccc3CC(=O)c3sccc32)CC1
Activity (MIA PaCa-2): Active
Activity (PANC-1): Active
Activity (ASPC1): Active
Activity (BXPC-3): Active

Structure (SMILES): Cc1nc2n(c(=O)c1CCN1CCC(c3noc4cc(F)ccc34)CC1)CCCC2 [RISPERIDONE]
pIC50 (MIA PaCa-2): 5.00
pIC50 (PANC-1): 4.56
pIC50 (ASPC1): 4.45
pIC50 (BXPC-3): 5.12

Structure (SMILES): CC1(C)O[C@H]2C[C@H]3[C@@H]4CCC5=CC(=O)C=C[C@]5(C)[C@H]4[C@@H](O)C[C@]3(C)[C@]2(C(=O)CO)O1
Activity (MIA PaCa-2): Active
Activity (PANC-1): Active
Activity (ASPC1): Active
Activity (BXPC-3): Active

Structure (SMILES): CCC1=C(C)CN(C(=O)NCCc2ccc(S(=O)(=O)NC(=O)N[C@H]3CC[C@H](C)CC3)cc2)C1=O
Activity (MIA PaCa-2): Active
Activity (PANC-1): Active
Activity (ASPC1): Active
Activity (BXPC-3): Active

Structure (SMILES): Cc1nc2n(c(=O)c1CCN1CCC(c3noc4cc(F)ccc34)CC1)CCCC2O (stereo unspecified)
Activity (MIA PaCa-2): Active
Activity (PANC-1): Active
Activity (ASPC1): Active
Activity (BXPC-3): Active

pIC50 (MIA PaCa-2): 5.89
pIC50 (PANC-1): 5.74
pIC50 (ASPC1): 5.28
pIC50 (BXPC-3): 5.43
Structure (SMILES): COc1ccc(CCN2CCC(Nc3nc4ccccc4n3Cc3ccc(F)cc3)CC2)cc1 [ASTEMIZOLE]
